In patent publication US6852317B2 (priority 2000, dated 2005):

Tested on: Alternaria

Nc1nc2cccc(-c3ccc(CN4CCS(=O)(=O)CC4)cc3)n2n1 [metabolite]
activity after heating (heating to 80 degrees C. for one hour): not lost | activity after treatment with acid (treated with acid): lost | score against Alternaria after acid treatment (treated with acid, score before treatment 0, 0-5 scale): 5 | activity after treatment with base (treated with base): not lost
